Test results reported in EP1751175B1, “INTERLEUKIN-1 RECEPTOR ANTAGONISTS, COMPOSITIONS, AND METHODS OF TREATMENT” (VALORISATION-RECHERCHE, Société en Commandite, priority 2004, dated 2005).
pIC50: −log10 of the molar value. Where a SMILES comes first, the peptide text is derived from it. Where no end group is shown, it is not given here. [ ]: non-standard residue; d: D form.

How the values were obtained:
[1] = tested on: rats; assay: TNBS-induced inflammatory bowel disease model in rats, 48 h: MPO activity, macroscopic score, histologic score (Table 3: 1 no injury to 5 marked denudation); format: in vivo
Method: Colon inflammation was induced by intra-rectal/colon administration of the hapten trinitrobenzene sulphonic acid (TNBS) as described in Example 4. Two hours prior to TNBS administration, peptides, peptidomimetics or 0.9% saline were administered intravenously (iv) via the caudal vein (various concentrations of mg/kg/d) (total volume of 0.3ml). […] A third group (control) was not injected with TNBS. For intermittent administration, fifteen minutes after TNBS administration, 101.10 (0.25-1 mg/kg), 101.107 (0.2 mg/kg), 101.113 (0.05-1 mg/kg) were administered by intermittent intraperitoneal injection (ip). Also, these IL-1R antagonists were given twice a day (BID); Remicade® (anti-TNFα) (10 mg/kg) and dexamethasone (0.75 mg/kg) were administered intraperitoneally but only once a day (qd). The intrarectal administration (ir) of 101.10, 101.113 (1 and 2.5 mg/kg), and 5-ASA (50 mg/kg) was done one hour after TNBS administration, and twice a day, except for 5-ASA which is once a day. Finally, 101.10 (1-5 mg/kg) was also administered orally by gavage (po), twice a day. Forty-eight hours after administration of TNBS, rats were killed by CO2 inhalation. Colon was removed and assessed macroscopically (adhesions, ulcerations, discoloration and bleeding) and histologically (neutrophil infiltration, epithelial injury, crypt distortion and ulcerations). One to seven animals per group were studied, according to treatments. Myeloperoxidase (MPO) activity was measured on tissue lysates.
TABLE 3: Histological Injury Scoring System

[2] = tested on: piglet pial vessels; design: species or system Yorkshire piglets
Method: Ex vivo vasomotor response on brain vessels was performed as described (Li et al., 1996; Hou et al., 2000; Hou et al., 2001; Hou et al., 2003). Brains were removed from Yorkshire piglets. Slices of cortex exposing the pial vessels were pinned to a wax base of a 20 ml bath containing Krebs buffer (pH 7.4) equilibrated with 95% O2, 5% CO2 and maintained at 37°C. Microvessels were visualized and recorded using a video camera mounted on a dissecting microscope. Vascular diameter was measured using a digital image analyzer. Vascular diameter was recorded before and after topical application of pre-constricting agent, U46619 (10^-7 M). After stabilization of preparation, the ligand (IL-1β, 75 ng/ml) was added until stable vasodilation was detected. Peptides were subsequently added at different concentrations from 10^-10 to 10^-5 M. Reversal of vasodilatation was visualized and measured as previously described (Hou, et al. 2000; Hou et al. 2001; Hou et al. 2003); triplicate measurements were conducted on 2 animals.

[3] = biological target: T1, TF-1 cells (Homo sapiens, UniProt P14778+Q9NPH3); assay: IL-1ß-induced TF-1 proliferation; format: cell-based; conditions: Table 5; for Emax: TF-1
T1 sequence (P14778 18-569): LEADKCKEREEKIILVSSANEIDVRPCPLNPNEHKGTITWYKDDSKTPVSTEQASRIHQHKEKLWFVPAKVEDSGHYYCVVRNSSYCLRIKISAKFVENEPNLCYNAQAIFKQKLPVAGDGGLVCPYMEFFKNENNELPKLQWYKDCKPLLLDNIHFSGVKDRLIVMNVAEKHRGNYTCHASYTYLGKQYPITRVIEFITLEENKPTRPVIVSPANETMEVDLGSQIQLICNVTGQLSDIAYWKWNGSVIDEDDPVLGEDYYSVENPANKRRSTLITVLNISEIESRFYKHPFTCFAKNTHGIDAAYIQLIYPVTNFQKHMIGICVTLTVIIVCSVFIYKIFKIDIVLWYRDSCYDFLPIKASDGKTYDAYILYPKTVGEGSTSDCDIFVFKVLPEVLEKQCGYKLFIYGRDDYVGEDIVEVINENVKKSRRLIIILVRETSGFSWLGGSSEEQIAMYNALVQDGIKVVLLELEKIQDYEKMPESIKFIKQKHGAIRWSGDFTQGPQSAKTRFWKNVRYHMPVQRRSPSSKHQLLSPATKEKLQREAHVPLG
T1 sequence (Q9NPH3 21-570): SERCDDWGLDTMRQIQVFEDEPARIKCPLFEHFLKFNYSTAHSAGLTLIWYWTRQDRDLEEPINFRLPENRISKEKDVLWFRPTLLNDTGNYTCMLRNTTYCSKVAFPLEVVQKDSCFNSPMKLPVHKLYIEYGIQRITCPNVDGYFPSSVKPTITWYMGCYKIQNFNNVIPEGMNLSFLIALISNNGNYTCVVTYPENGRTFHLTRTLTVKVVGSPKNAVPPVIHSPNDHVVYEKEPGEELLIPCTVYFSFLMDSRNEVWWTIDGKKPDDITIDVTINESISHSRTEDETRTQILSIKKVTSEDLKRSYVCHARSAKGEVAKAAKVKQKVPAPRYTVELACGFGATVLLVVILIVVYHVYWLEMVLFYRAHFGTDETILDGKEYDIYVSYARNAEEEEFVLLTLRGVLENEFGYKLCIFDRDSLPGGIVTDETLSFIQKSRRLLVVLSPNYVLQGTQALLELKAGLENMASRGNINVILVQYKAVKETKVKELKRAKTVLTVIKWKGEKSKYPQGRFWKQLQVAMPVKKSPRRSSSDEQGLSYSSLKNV

[4] = tested on: IL-1 ß-induced proliferation and PGE2 synthesis; assay: Structure vs activity summary of Table 4 (proliferation and PGE2 synthesis, not separated); format: cell-based; conditions: Table 4, derivatives of TTI-101.107
[5] = intermittent injection (ip), dose 0.75 - qd mg/kg/d
[6] = intrarectal administration, dose 50.0-qd mg/kg/d

Emax [3] [%]	activity compared with 101.113, in words [3]	Molecule	also measured
–	–	C[C@@H]1C[C@H]2[C@@H]3CCC4=CC(=O)C=C[C@]4(C)[C@@]3(F)[C@@H](O)C[C@]2(C)[C@@]1(O)C(=O)CO [Dexamethasone, dexamethasone]	MPO (% of TNBS+Saline) [1, 5]: 60 % of TNBS+Saline; histologic evaluation (median score) [1, 5]: 3; macroscopic (median score) [1, 5]: 0.87
–	–	Nc1ccc(O)c(C(=O)O)c1 [5-ASA]	MPO (% of TNBS+Saline) [1, 6]: 49 % of TNBS+Saline; histologic evaluation (median score) [1, 6]: 3.3; macroscopic (median score) [1, 6]: 1.5
–	–	CC(C)C[C@@H](NC(=O)[C@@H](CCC(=O)O)NC(=O)[C@H](NC(=O)[C@H](NC(=O)[C@@H](Cc1ccc(O)cc1)NC(=O)[C@@H](CCCNC(=N)N)NC(=O)[C@H]1CCCN1C(=O)[C@@H](C)N)[C@H](C)O)C(C)C)C(=O)N[C@H](C)C(=O)O [API-101]	pIC50 [2]: 6.74
63	–	CC(C)C[C@@H](NC(=O)[C@@H](CCC(=O)O)NC(=O)[C@H]1CCCN1C(=O)[C@H](NC(=O)[C@@H](Cc1ccc(O)cc1)NC(=O)[C@@H](N)CCCNC(=N)N)[C@H](C)O)C(N)=O [API-101.135, *RYTPEL]	–
–	completely abolished the activity	RFVPELA [API-101.127]	–
–	–	XRYTPELA (X=Acetyl) (Ac-[dR][dY][dT][dP][dE][dL][dA]) [API-101.121]	activity of the peptide, in words [4]: completely lost
35	relatively decreased	CC(C)C[C@@H](NC(=O)[C@@H](CCC(=O)O)NC(=O)[C@H]1CCCN1C(=O)[C@H](NC(=O)[C@@H](Cc1ccccc1)NC(=O)[C@H](N)CCCNC(=N)N)[C@H](C)O)C(N)=O [API-101.132, RFTPEL] (HELM PEPTIDE1{[dR].[dF].[dT].[dP].[dE].[dL].[am]}$$$$V2.0; N-terminus and C-terminus assumed)	–
70	–	CC(C)C[C@@H](NC(=O)[C@@H](CCC(=O)O)NC(=O)[C@H]1CCCN1C(=O)[C@H](NC(=O)[C@@H](Cc1ccc(O)cc1)NC(=O)[C@H](N)CCCNC(=N)N)[C@H](C)O)C(=O)O [API-101.113, RYTPEL]	–
10	–	CC(C)C[C@@H](NC(=O)[C@@H](CCC(=O)O)NC(=O)[C@H]1CCCN1C(=O)[C@H](NC(=O)[C@@H](Cc1ccc(O)cc1)NC(=O)[C@H](N)CCCNC(N)=O)[C@H](C)O)C(N)=O [API-101.134, XYTPEL (X=Citrulline)]	–
–	little or no activity	KYTPEL [API-101.133]	Emax (%) [3]: <10%
–	relatively decreased	CC(C)C[C@@H](NC(=O)[C@@H](CCC(=O)O)NC(=O)[C@H]1CCCN1C(=O)[C@H](NC(=O)[C@@H](Cc1c[nH]c2ccccc12)NC(=O)[C@H](N)CCCNC(=N)N)[C@H](C)O)C(N)=O [API-101.128, RWTPEL]	–
50	–	CC(C)[C@@H](NC(=O)[C@@H](CCC(=O)O)NC(=O)[C@H]1CCCN1C(=O)[C@H](NC(=O)[C@@H](Cc1ccc(O)cc1)NC(=O)[C@H](N)CCCNC(=N)N)[C@H](C)O)C(N)=O [API-101.129, RYTPEV]	–
–	little or no activity	XYTPEL (X=Ornithine) [API-101.126]	Emax (%) [3]: 0%
